According to patent US6358492B1, “Dopamine transporter imaging ligand” (Research Triangle Institute, priority 1997, dated 2002):
Where a name gives a salt, the structure may show the parent alone. Read-outs that look alike come from different tables or passages of the source.

Assays:
[1] = system: norepinephrine transporter; experiment: Inhibition of 0.5 nM [3H]nisoxetine binding to the norepinephrine transporter; conditions: ratio of IC50 values
serotonin transporter [2] = target: serotonin transporter (UniProt P31652); conditions: read-out: IC50 5-HT [3H]Paroxetine; 0.2 nM [3H]paroxetine; values taken from literature (footnotes d-h); cited from earlier work
serotonin transporter [3] = assay type: binding; conditions: for 5-HT/DA Ratio: ratio of IC50 values
[4] = target: norepinephrine transporter (UniProt Q9WTR4); experiment: Inhibition of 0.5 nM [3H]nisoxetine binding to the norepinephrine transporter; conditions: read-out: IC50 NE [3H]Nisoxetine; 0.5 nM [3H]nisoxetine; mean ± standard error where given
serotonin transporter [5] = target: serotonin transporter (UniProt P31652); assay type: binding; conditions: read-out: IC50 5-HT [3H]Paroxetine; 0.2 nM [3H]paroxetine; mean ± standard error where given
dopamine transporter [6] = target: dopamine transporter (Mus musculus, UniProt Q61327); experiment: In vivo binding / regional brain distribution of radiolabeled ligand after i.v. injection in mice
Sequence of dopamine transporter (Mus musculus, UniProt Q61327) (Q61327 whole entry): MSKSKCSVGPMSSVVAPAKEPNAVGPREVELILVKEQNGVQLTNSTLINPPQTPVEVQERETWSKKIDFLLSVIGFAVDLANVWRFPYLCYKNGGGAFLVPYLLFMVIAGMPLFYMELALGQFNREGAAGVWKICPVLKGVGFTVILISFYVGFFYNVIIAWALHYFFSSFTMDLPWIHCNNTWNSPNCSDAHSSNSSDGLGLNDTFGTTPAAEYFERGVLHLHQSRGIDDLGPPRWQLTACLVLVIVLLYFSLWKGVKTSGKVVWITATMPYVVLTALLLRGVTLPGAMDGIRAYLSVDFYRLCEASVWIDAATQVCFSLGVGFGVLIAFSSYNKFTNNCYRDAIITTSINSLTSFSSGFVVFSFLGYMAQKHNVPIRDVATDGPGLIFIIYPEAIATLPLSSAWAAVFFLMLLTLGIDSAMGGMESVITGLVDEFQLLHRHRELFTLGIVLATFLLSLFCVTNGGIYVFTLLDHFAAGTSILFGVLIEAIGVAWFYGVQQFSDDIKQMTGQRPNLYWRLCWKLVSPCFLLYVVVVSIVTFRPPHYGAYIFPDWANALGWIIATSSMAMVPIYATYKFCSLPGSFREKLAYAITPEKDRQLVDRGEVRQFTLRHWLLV
Experimental: Male CD mice weighting 25-35 g received 1 μCi [^3H]RTI-352 ([…], diluted in saline containing 0.5% methanol) by intravenous injection. The animals were killed at different times, and [^3H]RTI-352 concentrations in different brain regions determined as previously described (Scheffel et al., 1989; Cline et al., 1992). To evaluate the selectivity of [^3H]RTI-352 in vivo binding, blocking doses (5 mg/kg, dissolved in 0.1 ml saline) of GBR 12,909 (DAT blocker), desipramine (NET blocker), or paroxetine (5-HTT blocker) were injected intravenously 5 minutes before [^3H]RTI-352 tracer injection. The animals were killed 30 minutes later and [^3H]RTI-352 concentrations determined in the various brain tissues.
The percent dose per gram tissue peaked rapidly in all regions of the brain and was maintained for a slightly longer time in the striatum compared to other tissues that lack DAT. The tissue to cerebellar ratios reflected this fact in that striatal to cerebellar ratios were relatively high at early times but low at later times (FIG. 1).

[7] = target: norepinephrine transporter (UniProt Q9WTR4); conditions: read-out: IC50 NE [3H]Nisoxetine; 0.5 nM [3H]nisoxetine; values taken from literature (footnotes d-h); cited from earlier work
dopamine transporter [8] = target: T1, dopamine transporter (UniProt P23977); assay type: binding; conditions: read-out: IC50 DA [3H]WIN 35,428; 0.5 nM [3H]WIN 35,428; mean ± standard error where given
T1 construct: other: 0.5 nM [3H]WIN 35,428; mean ± standard error where given

dopamine transporter [9] = target: T1, dopamine transporter; conditions: read-out: IC50 DA [3H]WIN 35,428; 0.5 nM [3H]WIN 35,428; values taken from literature (footnotes c-h); cited from earlier work

SMILES: COC(=O)C1C(c2ccc(I)cc2)CC2CCC1N2C (stereo not shown) [1b, reference compound]
- NE/DA Ratio [1]: 29
- IC50 (serotonin transporter [2]): 4.21 ± 0.3 nM
- 5-HT/DA Ratio (serotonin transporter [3]): 3.3

SMILES: COC(=O)[C@@H]1[C@H]2CC[C@@H](C[C@H]1c1ccc(F)cc1)N2C [2a, 3α-(4-Fluorophenyl)tropane-2β-carboxylic acid methyl ester]
- IC50 [4]: 1230 nM
- IC50 (serotonin transporter [5]): 5060 nM

SMILES: [3H]C([3H])([3H])N1[C@H]2CC[C@@H]1[C@@H](C(=O)OC)[C@H](c1ccc(I)cc1)C2 [[^3H]RTI-352]
- hypothalamus/cerebellum ratio (dopamine transporter [6]; mouse brain, i.v. 1 μCi tracer, little enrichment at any time): 1.4
- efflux from brain (dopamine transporter [6]; mouse, i.v. injection): relatively rapid
- penetration into brain (dopamine transporter [6]; mouse, i.v. injection): very rapid

SMILES: COC(=O)C1C(c2ccc(F)cc2)CC2CCC1N2C (stereo not shown) [1a]
- IC50 [7]: 835 ± 45 nM
- IC50 (serotonin transporter [2]): 810 ± 59 nM

SMILES: COC(=O)[C@@H]1[C@H]2CC[C@@H](C[C@H]1c1ccc(C)cc1)N2C [2d, 3α-(4-Methylphenyl)tropane-2β-carboxylic acid methyl ester tosylate]
- IC50 [4]: 275 ± 24 nM
- IC50 (dopamine transporter [8]): 10.2 ± 0.8 nM

SMILES: COC(=O)C1C(c2ccccc2)CC2CCC1N2C (stereo not shown) [1e]
- IC50 (dopamine transporter [9]): 23 ± 5 nM
- IC50 [7]: 920 ± 73 nM

SMILES: COC(=O)C1C(c2ccccc2)CC2CCC1N2C (stereo not shown) [2e]
- IC50 [4]: 2080 nM
- IC50 (dopamine transporter [8]): 101 ± 16 nM

SMILES: COC(=O)[C@@H]1[C@H]2CC[C@@H](C[C@H]1c1ccc(Cl)cc1)N2C [2c, 3α-(4-Chlorophenyl)tropane-2β-carboxylic acid methyl ester tosylate]
- IC50 (dopamine transporter [8]): 2.4 ± 0.2 nM
- IC50 (serotonin transporter [5]): 998 ± 120 nM

SMILES: COC(=O)[C@@H]1[C@H]2CC[C@@H](C[C@H]1c1ccc(I)cc1)N2C.Cc1ccc(S(=O)(=O)O)cc1 [2b, 3α-(4-Iodophenyl)tropane-2β-carboxylic acid methyl ester tosylate]
- IC50 [4]: 52.4 ± 4.9 nM
- NE/DA Ratio [1]: 18
- time at which striatal-to-cerebellar ratio peaked (dopamine transporter [6]; mouse brain, i.v. tracer): about 30 min
- time the peak striatal-to-cerebellar ratio was maintained thereafter (dopamine transporter [6]; mouse brain, i.v. tracer): about 20 min
- IC50 (dopamine transporter [8]): 2.85 ± 0.16 nM
- 5-HT/DA Ratio (serotonin transporter [3]): 23
- times more selective for the DAT relative to the 5-HT transporter (serotonin transporter [3]; relative to 1b (RTI-55)): 7 times
- IC50 (serotonin transporter [5]): 64.9 ± 1.97 nM

SMILES: COC(=O)C1C(c2ccc(Cl)cc2)CC2CCC1N2C (stereo not shown) [1c]
- IC50 (serotonin transporter [2]): 44.5 ± 1.3 nM

SMILES: COC(=O)[C@H]1[C@@H](c2ccc([125I])cc2)C[C@@H]2CC[C@H]1N2C [[^125I]RTI-55, reference compound]
- approach to equilibrium of striatal to cerebellar ratios (dopamine transporter [6]; mouse, parallel in vivo labeling experiments): steadily increasing at 120 min
